Measurements: patent publication US11083724B2, “Rimegepant for CGRP related disorders” (Biohaven Pharmaceutical Holding Company Ltd., priority 2018, dated 2021)

System: subjects with Acute Migraines
Test: Study 301 (BHV3000-301, NCT03235479): Phase 3 double-blind placebo-controlled trial, rimegepant 75 mg tablet, acute treatment of migraine
Type: in vivo, human
Conditions: for Freedom from MBS at 2 hours / Pain Freedom (pain-free) at 2 hours: N = 543
Description: Clinical Trial—BHV3000-301: Phase 3: Double-Blind, Randomized, Placebo-Controlled, Safety and Efficacy Trial of BHV-3000 (Rimegepant) for the Acute Treatment of Migraine (ClinicalTrials.gov Identifier: NCT03235479). A phase 3 clinical study was conducted with 1490 participants, as follows. The purpose of this study was to compare the efficacy of BHV-3000 (rimegepant) versus placebo in subjects with Acute Migraines Study Design • Study Type: Interventional (Clinical Trial) • Actual Enrollment: 1490 participants • Allocation: Randomized • Intervention Model: Parallel Assignment • Intervention Model Description: Double-blind to Sponsor, Investigator and Subject Randomized Controlled Trial • Masking: Triple (Participant, Care Provider, Investigator) • Masking Description: Double-blind to Sponsor, Investigator and Subject • Primary Purpose: Treatment • Official Title: BHV3000-301: Phase 3: Double-Blind, Randomized, Placebo-Controlled, Safety and Efficacy Trial of BHV-3000 (Rimegepant) for the Acute Treatment of Migraine Arms and Interventions Outcome Measures Primary Outcome Measures: • 1. Pain freedom of rimegepant (75 mg tablet) compared with placebo in the acute treatment of migraine will be measured using the number of evaluable subjects that report no pain at 2 hours post-dose. [Time Frame: Two hours post dose] • Pain will be measured on a 4 point Likert scale (0=none, 1=mild, 2=moderate, 3=severe) • 2. Freedom from the most bothersome symptom (MBS) of rimegepant (75 mg tablet) compared with placebo will be measured using the number of evaluable subjects that report the absence of their MBS at 2 hours post-dose. [Time Frame: Two hours post dose] • The MBS (nausea, phonophobia or photophobia) will measured using a binary scale (0=absent, 1=present). Secondary Outcome Measures: • 1. […] [Time Frame: 2 hours-24 hours post-dose] • Sustained Pain Freedom as measured by a 4 point numeric rating scale (None, Mild, Moderate, Severe) • 2. The difference between rimegepant (75 mg tablet) compared to placebo by tabulating the absence of photophobia at 2 hours post-dose in the subset of subjects that reported the presence of photophobia at headache baseline. [Time Frame: 2 hours post-dose] • Photophobia • 3. To evaluate rimegepant (75 mg tablet) compared to placebo by tabulating the number of subjects that report the absence of phonophobia at 2 hours post-dose in the subset of subjects that reported the presence of phonophobia at headache baseline. [Time Frame: 2 hours post-dose] • Phonophobia • 4. To measure the difference between rimegepant (75 mg tablet) compared to placebo on Pain Relief, at 2 hours post-dose, for those that report a pain level of moderate or severe at baseline and then report a pain level of none or mild. [Time Frame: 2 hours post-dose] • Pain Relief as measured by a 4 point numeric rating scale (None, Mild, Moderate, Severe) • 5. Freedom from Nausea by tabulating the number of subjects that report the absence of nausea at 2 hours post-dose in the subset of subjects that reported the presence of nausea at headache baseline. [Time Frame: 2 hours post-dose] • Freedom from Nausea • 6. The difference between rimegepant (75 mg tablet) compared to placebo on the probability of requiring rescue medication using the number of subjects that take rescue medication within […] administration of study medication (BHV3000 or placebo). [Time Frame: up to 24 hours post-dose] • Requiring Rescue Medication • 7. […] [Time Frame: 2 hours-24 hours post-dose] • Sustained Pain Freedom • 8. […] [Time Frame: 2 hours-24 hours post-dose] • Sustained Pain Relief as measured by a 4 point numeric rating scale (None, Mild, Moderate, Severe) • 9. […] [Time Frame: 2 hours-48 hours post-dose] • Sustained Pain Relief as measured by a 4 point numeric rating scale (None, Mild, Moderate, Severe) • 10. […]

[1] = Study 301, single 75 mg tablet, listed as rimegepant

How did the “SAEs related to the study drug” value (Study 301) turn out when `N[C@@H]1c2cccnc2[C@H](OC(=O)N2CCC(n3c(=O)[nH]c4ncccc43)CC2)CC[C@H]1c1cccc(F)c1F` [Rimegepant, [(5S,6S,9R)-5-amino-6-(2,3-difluorophenyl)-6,7,8,9-tetrahydro-5H-cyclohepta[b]pyridin-9-yl] 4-(2-oxo-3H-imidazo[4,5-b]pyridin-1-yl)piperidine-1-carboxylate] was run?
Its value is “No SAE”.

And the “bilirubin elevations >2 times ULN” value (Study 301)?
The value was “No bilirubin elevations”.

And the “transaminase level >5 times ULN” value (Study 301)?
The value was “no subject”.

And the AE dizziness (Study 301, 4/546)?
The AE dizziness was 0.7%.

And the AE nausea (Study 301, 5/546)?
Its AE nausea is 0.9%.

What about the “Serum ALT or AST levels greater than ULN” value (Study 301, 11/546) of the same compound?
The value was 2.0%.

And the “functional disability: patients achieving normal function at 2 hours versus placebo” value (Study 301, P<0.0001)?
Its value is “greater proportion”.

And the “Serious AEs (SAEs)” value (Study 301, n=2)?
The value was 0.4%.

And the “transaminase level >3 times ULN” value (Study 301, one subject)?
The value was 0.2%.

And the “Free from MBS at 2 hours, subjects [n/N]” value (Study 301, single 75 mg tablet)?
The value was “[199/543]”.

What about the “Nausea-free at 2 hours” value (Study 301, single 75 mg tablet) of the same compound?
The value was 46.9%.

What about the “Nausea-free at 2 hours, subjects [n/N]” value (Study 301, single 75 mg tablet) of the same compound?
Its value is “[149/318]”.

And the “Pain relief at 2 hours” value (Study 301, single 75 mg tablet)?
The value was 56.0%.

What about the “Pain relief at 2 hours, subjects [n/N]” value (Study 301, single 75 mg tablet) of the same compound?
Its value is “[304/543]”.

What about the “Pain-free at 2 hours, subjects [n/N]” value (Study 301, single 75 mg tablet) of the same compound?
Its value is “[104/543]”.

What about the “Phonophobia-free at 2 hours” value (Study 301, single 75 mg tablet) of the same compound?
The value was 38.6%.

And the “Phonophobia-free at 2 hours, subjects [n/N]” value (Study 301, single 75 mg tablet)?
The value was “[133/345]”.

And the “Photophobia-free at 2 hours” value (Study 301, single 75 mg tablet)?
The value was 34.9%.

And the “Photophobia-free at 2 hours, subjects [n/N]” value (Study 301, single 75 mg tablet)?
The value was “[164/470]”.

What about the “Sustained pain relief, 2-24 hours” value (Study 301, single 75 mg tablet) of the same compound?
Its value is 38.9%.

What about the “Sustained pain relief, 2-24 hours, subjects [n/N]” value (Study 301, single 75 mg tablet) of the same compound?
The value was “[211/543]”.

What about the “Freedom from MBS at 2 hours” value (Study 301, single 75 mg tablet) of the same compound?
Its value is 36.6%.

What about the “Pain Freedom (pain-free) at 2 hours” value (Study 301, single 75 mg tablet) of the same compound?
Its value is 19.2%.

And the “Freedom from MBS at 2 hours” value [1]?
Its value is 36.6%.

What about the “Pain Freedom (pain-free) at 2 hours” value [1] of the same compound?
Its value is 19.2%.

What about the “Pain relief at 2 hours” value [1] of the same compound?
Its value is 56.0%.

What about the “sustained pain relief from 2 through 48 hours postdose versus placebo” value (Study 301, single dose, no rescue medication, P=0.0003) of the same compound?
Its value is “superiority versus placebo”.

What about the “sustained pain freedom from 2 through 48 hours postdose versus placebo” value (Study 301, single dose, no rescue medication, P=0.013) of the same compound?
The value was “superiority versus placebo”.
